Source: patent US20260199282A1, “METHODS AND COMPOSITIONS FOR IMPROVING DRIVING PERFORMANCE” (priority 2022, published 2026)

Legend:
[1] = test system: subjects with EDS due to OSA; experiment: Standardized on-road highway driving test, OSA study; format: in vivo, human
Procedure: This was a randomized, double-blind, placebo-controlled, crossover, on-road driving study in subjects with EDS due to OSA. A total of 40 adult subjects were planned for enrollment, and 34 subjects were randomized. Subjects received either solriamfetol (150 mg QD for 3 days, followed by 300 mg QD for 4 days) or matching placebo for 7 days, and then crossed over to receive the other treatment regimen for 7 days (FIG. 4). […] The PVT was administered predose and prior to each driving test. Actigraphy and a sleep diary were used to assess daily sleep patterns. The Toronto Hospital Alertness Test (THAT) was administered at baseline and at the end of each treatment period. A Follow-up Visit was performed approximately 7 days after the final dose of study drug. Subjects were recruited at clinical sites. Eligibility was determined through screening procedures (including a Maintenance of Wakefulness Test [MWT]) at the clinical sites after the washout of prohibited medications, and a practice driving test at the driving test site. A total of 40 adult subjects were planned for enrollment; 34 subjects were randomized and analyzed for safety and efficacy.
Assessments to determine driving performance included: standard deviation of lateral position (SDLP; Verster and Roth 2011; Raemakers 2017), standard deviation of speed (SDS), and number of driving lapses (also known as lane drift, defined as deviations>100 cm from the mean lateral position and from the absolute lateral position for 8 seconds; Vinckenbosch 2020). Driving performance was assessed using a standardized on-road driving test on Day 7 (Visit 4) and on Day 14 (Visit 5). A practice driving test was performed during the screening period to familiarize the subject with the vehicle and test scenario, assess if the subject could adequately operate the manual transmission vehicle, and determine if any safety concerns existed that excluded the subject from participating in the study.
During each drive, subjects operated a specially instrumented vehicle for approximately 1 hour over a 100 km (61 mile) primary highway circuit. During each driving test, each subject was accompanied by a licensed driving instructor who had access to dual controls (i.e., brakes, clutch, and accelerator). The subject or instructor could stop the test if either considered it unsafe to continue. The subject was instructed to drive with a steady lateral position between the delineated boundaries of the slower (right) traffic lane, while maintaining a constant speed of
95 km/h (58 mph). Subjects could deviate from these instructions only to pass a slower vehicle, to respond to a slower speed in traffic ahead of him/her and to leave and re-enter the highway at the turnaround point. During the drive, the vehicle's speed and lateral distance to the left lane line were continuously recorded and captured on an onboard computer disk file. Subjects were transported to and from the driving circuit on each test day.
The primary analysis was based on the mITT population. The primary outcome measure of mean change in SDLP was analyzed using a repeated mixed effect analysis of variance (ANOVA) model. The model included treatment (solriamfetol and placebo), driving performance test (2 hours postdose and 6 hours postdose), treatment period, treatment sequence, and treatment by driving performance test interaction as fixed effects and subject as a random effect. The 2-sided 95% confidence intervals of solriamfetol-placebo changes for SDLP based on the repeated mixed effect ANOVA model was constructed for each driving performance test.
Individual changes (solriamfetol minus placebo) in driving performance were measured by SDLP at 2 hours and 6 hours postdose. The Maximum McNemar symmetry analyses (Laska et al. 2012) were used to detect an asymmetry in the distribution of the change in driving performance at 2 hours and 6 hours post-dose. […]

[2] = test system: participants with OSA; experiment: Actual task effectiveness from PVT inverse reaction time, OSA; format: in vivo, human; details: OSA n=31
Procedure: Actual task effectiveness scores were calculated based on each participant's inverse reaction time (IRT [1/RT]) as described below. Sleep intervals derived from participants' actigraphy data—or from sleep diaries, if available, where actigraphy data were missing—were used to calculate modeled healthy control task effectiveness scores using the SAFTE. Participants evidenced good sleep hygiene, with minimal missing data. Task effectiveness was not modeled for participants missing data from the night before PVT testing. A SAFTE model effectiveness score of 100 indicates typical best performance during the day, based on a normal healthy population. SAFTE-FAST effectiveness predictions have been validated against IRT on the PVT [22].
Actual effectiveness scores were calculated as a percentage of a theoretical “best performance” from participants' average IRT per PVT trial (for all PVT test sessions, actual effectiveness=IRT/3.96×100). Average speed (IRT) on a PVT under optimal conditions—healthy sleepers taking the test at 11:00 in the morning, following an 8-hour sleep opportunity—is approximately 3.96 [40], and is assumed to represent an actual effectiveness score of 100 (a healthy participant's typical best performance). Repeated-measures analysis of variance (ANOVA) was used to estimate the effect of treatment on actual effectiveness over time.

[3] = 2 hours postdose, mITT, primary analysis, listed as JZP-110
[4] = 2 hours postdose, sequence JZP-110/Placebo, mITT
[5] = 2 hours postdose, sequence Placebo/JZP-110, mITT
[6] = 6 hours postdose, sequence JZP-110/Placebo, mITT
[7] = 6 hours postdose, sequence Placebo/JZP-110, mITT

NC(=O)OC[C@H](N)Cc1ccccc1 [Solriamfetol, (R)-2-amino-3-phenylpropyl carbamate]
Maximum McNemar test, distribution of change in driving performance ([1]; 2 hours and 6 hours post-dose, mITT): did not show asymmetry | driving lapses, LS mean difference solriamfetol vs placebo ([1]; 2 hours postdose): −1.128 lapses | standard deviation of speed (SDS), LS mean difference ([1]; 2 hours postdose): 0.068 km/h | SDLP, mean (SD), observed ([1]; 2 hours postdose, day 7, 300 mg/day, mITT): 18.83 (3.690) cm | SDLP, mean (SD) difference (JZP-110 − Placebo) ([1]; 2 hours postdose, mITT): −1.11 (2.520) cm | SDLP, median difference (JZP-110 − Placebo) ([1]; 2 hours postdose, mITT): −0.78 cm | SDLP, median, observed ([1]; 2 hours postdose, mITT): 18.39 cm | SDLP, LS mean (SE) ([1]; 2 hours postdose, mITT, primary analysis): 18.83 cm | SDLP, LS mean (SE) [1, 3]: 18.83 (0.627) cm | SDLP, LS mean difference (JZP-110 − Placebo) [1, 3]: −1.084 cm | SDLP, mean (SD) [1, 4]: 18.58 (3.831) cm | SDLP, mean difference JZP-110 vs placebo [1, 4]: −0.26 cm | SDLP, median [1, 4]: 17.98 cm | SDLP, median difference JZP-110 vs placebo [1, 4]: −0.18 cm | SDLP, mean difference JZP-110 vs placebo [1, 5]: −1.91 cm | SDLP, median [1, 5]: 20.00 cm | SDLP, median difference JZP-110 vs placebo [1, 5]: −2.46 cm | SDLP, mean (SD) ([1]; 2 hours postdose, sequence Placebo/JZP-110, mITT, listed as JZP-110): 19.08 (3.643) cm | SDLP, mean (SD) ([1]; 2 hours postdose, sequence Placebo/JZP-110, mITT, listed as solriamfetol): 19.08 cm | driving lapses, LS mean difference solriamfetol vs placebo ([1]; 6 hours postdose): 0.050 lapses | standard deviation of speed (SDS), LS mean difference ([1]; 6 hours postdose): −0.109 km/h | SDLP, LS mean difference, sensitivity analysis ([1]; 6 hours postdose, PP population): −1.037 cm | SDLP, LS mean (SE) ([1]; 6 hours postdose, mITT): 19.24 (0.631) cm | SDLP, LS mean difference (JZP-110 − Placebo) ([1]; 6 hours postdose, mITT): −0.804 cm | SDLP, mean (SD) [1, 6]: 19.23 (3.224) cm | SDLP, mean difference JZP-110 vs placebo [1, 6]: 0.20 cm | SDLP, median [1, 6]: 18.92 cm | SDLP, median difference JZP-110 vs placebo [1, 6]: 0.43 cm | SDLP, mean difference JZP-110 vs placebo [1, 7]: −1.91 cm | SDLP, median [1, 7]: 19.24 cm | SDLP, median difference JZP-110 vs placebo [1, 7]: −1.33 cm | SDLP, mean (SD) ([1]; 6 hours postdose, sequence Placebo/JZP-110, mITT, listed as JZP-110): 19.23 (3.593) cm | SDLP, mean (SD) ([1]; 6 hours postdose, sequence Placebo/JZP-110, mITT, listed as solriamfetol): 19.23 cm | SDLP, difference in median values between the 2 treatments (solriamfetol-placebo) ([1]; placebo as initial treatment, both time points (2 and 6 hours postdose)): −1.91 cm | subjects who failed to complete the driving test ([1]; solriamfetol condition): 3 subjects | single McNemar test: proportion improved drivers versus impaired ([1]; threshold of 1.0 cm, 2 h post dose): 29.4% | Actual task effectiveness, LS mean (SE) ([2]; 2 hours post-dose): 91.88 (1.12) | Actual task effectiveness, LS mean difference ([2]; 2 hours post-dose): −2.35 | Actual task effectiveness, LS mean (SE) ([2]; 6 hours post-dose): 93.72 (1.12) | Actual task effectiveness, LS mean difference ([2]; 6 hours post-dose): −1.35 | Actual task effectiveness, LS mean (SE) ([2]; pre-dose): 89.19 (1.12) | Actual task effectiveness, LS mean difference ([2]; pre-dose): −4.45
